Results: patent US7256207B2, “Inhibitors of cathepsin S” (IRM LLC, priority 2003, dated 2007)

Columns and labels:
Type in all cases: biochemical
[1] = biological target: Cathepsin S (Homo sapiens, UniProt P25774); test: Cathepsin S inhibition assay, fluorogenic peptide substrate; conditions: Cathepsin S inhibition constant; pH5.5, 20 minutes preincubation at room temperature; read-out: Ki Cat. S
Procedure: (§1) The optimal substrate for cathepsin S, acetyl-histidine-proline-valine-lysine-amino carbamoyl coumarin, was identified from screening a combinatorial library of fluorogenic peptide substrates (Harris, J. L., B. J. Backes, et al. Proc Natl Acad Sci U S A 2000, 97(14), 7754-9). Kinetic measurements are performed in a total reaction volume of 30 μl in 384-well microtiter plates. Cathepsin S, at a final concentration of 0.3-3 nM (active site), is incubated with the compounds at twelve varying concentrations in a buffer containing 100 mM NaAc (pH5.5), 1 mM EDTA, 100 mM NaCl, 0.01% Brij-35 for 20 minutes at room temperature. Control reactions in the absence of inhibitor are performed in replicates of 24. The reactions are initiated by adding the substrate, acetyl-histidine-proline-valine-lysine-amino carbamoyl coumarin, to a final concentration of 50 μM. The rate of substrate hydrolysis is measured by monitoring the increase in fluorescence at an excitation wavelength of 380 nm and an emission wavelength of 450 nm that results from cleavage of the aniline bond in the substrate by the enzyme. The apparent inhibition constants for the compounds are determined from the enzyme progress curves (Kuzmic, P., K. C. Elrod, et al. Anal Biochem 2000, 286(1), 45-50) and are then used to calculate the inhibition constants for competitive inhibitors.

[2] = biological target: T1, Cathepsin K (Homo sapiens, UniProt P43235); test: Cathepsin K inhibition assay, fluorogenic peptide substrate (selectivity for Cat. S over Cat. K); conditions: ratio of cathepsin K inhibition constant to cathepsin S inhibition constant
T1 sequence (P43235 115-329): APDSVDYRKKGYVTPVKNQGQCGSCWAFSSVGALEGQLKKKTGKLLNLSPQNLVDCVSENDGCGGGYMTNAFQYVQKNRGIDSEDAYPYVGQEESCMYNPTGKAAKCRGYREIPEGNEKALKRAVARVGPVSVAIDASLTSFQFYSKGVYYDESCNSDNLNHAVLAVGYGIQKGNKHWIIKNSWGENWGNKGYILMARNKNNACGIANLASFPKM
Procedure: as §1, with “cathepsin K, acetyl-lysine-histidine-proline-lysine-amino” for “cathepsin S, acetyl-histidine-proline-valine-lysine-amino”, “Cathepsin K,” for “Cathepsin S,”, “of 3.5” for “of 0.3-3”, “substrate, acetyl-lysine-histidine-proline-lysine-amino” for “substrate, acetyl-histidine-proline-valine-lysine-amino”, “of 40” for “of 50”
(§2) Selectivity for cathepsin S in the presence of cathepsin isozymes was determined by the ratio of the cathepsin isozyme inhibition constant of a compound of the present invention to the cathepsin S inhibition constant of the same compound. Preferred compounds of the present invention selective for cathepsin S have ratios of greater than 10. More preferred compounds of the present invention selective for cathepsin S have ratios of greater than 100. Most preferred compounds of the present invention selective for cathepsin S have ratios of greater than 1000.

[3] = biological target: Cathepsin L (Homo sapiens, UniProt P07711); test: Cathepsin L inhibition assay, fluorogenic peptide substrate (selectivity for Cat. S over Cat. L); conditions: ratio of cathepsin L inhibition constant to cathepsin S inhibition constant
Procedure: as §1, with “cathepsin L, acetyl-histidine-lysine-phenylalanine-lysine-amino” for “cathepsin S, acetyl-histidine-proline-valine-lysine-amino”, “Cathepsin L,” for “Cathepsin S,”, “of 0.1” for “of 0.3-3”, “substrate, acetyl-histidine-lysine-phenylalanine-lysine-amino” for “substrate, acetyl-histidine-proline-valine-lysine-amino”, “of 20” for “of 50”
as §2

[4] = biological target: Cathepsin B (Homo sapiens, UniProt P07858); test: Cathepsin B inhibition assay, fluorogenic peptide substrate (selectivity for Cat. S over Cat. B); conditions: ratio of cathepsin B inhibition constant to cathepsin S inhibition constant
Procedure: as §1, with “B,” for “S,”, “1.5” for “0.3-3”, “[…].” for “50 μM.”
as §2

Chain of Cathepsin L (P07711 114-333, species assumed): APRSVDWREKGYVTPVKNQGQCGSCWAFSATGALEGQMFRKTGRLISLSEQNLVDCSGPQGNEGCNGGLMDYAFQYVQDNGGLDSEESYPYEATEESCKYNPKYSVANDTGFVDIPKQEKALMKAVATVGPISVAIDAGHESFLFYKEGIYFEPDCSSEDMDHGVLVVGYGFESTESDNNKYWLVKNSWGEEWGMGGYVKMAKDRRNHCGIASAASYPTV
Chain of Cathepsin S (P25774 115-331, species assumed): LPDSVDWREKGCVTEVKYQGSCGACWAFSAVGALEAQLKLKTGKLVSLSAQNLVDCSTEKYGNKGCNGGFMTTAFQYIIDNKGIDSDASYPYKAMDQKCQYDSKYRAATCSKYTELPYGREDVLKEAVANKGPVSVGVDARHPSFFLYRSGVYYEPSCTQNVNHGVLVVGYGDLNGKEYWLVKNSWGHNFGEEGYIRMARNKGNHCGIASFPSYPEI

Row | SMILES | Ki [1] [µM] | Selectivity for Cat. S over Cat. K [2] | Selectivity for Cat. S over Cat. L [3] | Selectivity for Cat. S over Cat. B [4]
1 | C[C@@H](CN1CCc2cc(F)ccc21)NC(=O)O[C@@H](CC1CCCC1)Cn1cnc2ccccc21 [Example 6, 2-(Benzimidazol-1-yl)-1-(S)-cyclopentylmethyl-ethyl [2-(5-fluoro-2,3-dihydro-indol-1-yl)-1-(S)-methyl-ethyl]carbamate] | < 0.1 | + (+, >10) | ++ (++, >100) | +++ (+++, >1000)
2 | CC(C)(C)C[C@H](Cn1cnc2cc(Cl)c(Cl)cc21)OC(=O)N[C@@H](CO)CN1CCc2cc(F)ccc21 [Example 1, 1-(R)-(5,6-Dichloro-benzimidazol-1-ylmethyl)-3,3-dimethyl-butyl [2-(5-fluoro-2,3-dihydro-indol-1-yl)-1-(R)-hydroxymethyl-ethyl]carbamate] | < 10 | − (−, <10) | + (+, >10) | + (+, >10)
